Reference: patent publication US20250235543A1, “MODIFIED PROTEINS AND PROTEIN DEGRADERS” (Cullgen (Shanghai), Inc., priority 2021, published 2025)
Like-named read-outs stand apart in the source and are kept apart here.

Legend:
[1] = target: T1, CDK4 (Homo sapiens, UniProt P11802); assay: CDK4 percentage degradation in Calu-1 cells (immunoblotting); assay type: cell-based; settings: for inhibition at 10 µM: read-out: CDK4 Degradation (10 μM); for inhibition at 0.2 µM: 200 nM, read-out: CDK4 Degradation (200 nM)
T1 construct: endogenous in cells; host or cells: Calu-1
Method in brief: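 Cultured cells were rinsed once in cold PBS and lysed in cold RIPA buffer containing protease and phosphatase inhibitors, with gentle agitation at 4° C. for 30 min. Lysates were centrifuged at 13,000 rpm for 10 min at 4° C., and protein was quantified by BCA. Samples were then separated by SDS-PAGE, detected with ECL, and the CDK4 bands quantified in Image Lab.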

[2] = test system: cyclin D1; assay: Cyclin D1 percentage degradation in Calu-1 cells (immunoblotting); assay type: cell-based; settings: 16 hours
Method in brief: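 Cells were rinsed once in cold PBS and lysed in cold RIPA buffer containing protease and phosphatase inhibitors, with gentle agitation at 4° C. for 30 min. Lysates were spun at 13,000 rpm for 10 min at 4° C., protein was measured by BCA, and samples were boiled in Laemmli buffer at 99° C. for 5 min before SDS-PAGE immunoblotting.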

[3] = target: T2, DDB1 (Homo sapiens, UniProt Q16531, D705G/DEL396-460/DEL463-701/I704S/T703N); assay: SPR binding assay to immobilized DDB1ΔBPB; settings: binding affinities to DDB1
T2 construct: His6 (N, cleaved yes); TEV protease cleavage site (N, cleaved yes); made in house; host or cells: SF9 insect cells, Bac-to-Bac baculovirus, pFastBacHTB vector
Experimental: The binding affinities of heterobifunctional compounds to DDB1 were determined by SPR assay (FIG. 1A-1B). Purified DDB1ΔBPB proteins were immobilized on a CM5 sensor chip, and a dose range of compound solutions were injected in multi-cycle kinetic format. Data were fit to a steady state model to provide equivalent dissociation constants (Kd).
Human DDB1ΔBPB (UniProt: Q16531. BPB domain, aa 396 to 705, is replaced with a GNGNSG linker) coding sequences were cloned into pFastBacHTB vector and were expressed in SF9 cells using Bac-to-Bac baculovirus expression system (Thermo Fisher Scientific). The expression constructs include an N-terminal His6-tag to facilitate the purification, and a TEV protease cleavage site in between. DDB1ΔBPB proteins were obtained from supernatant of cell lysates and purified through sequential application of Ni affinity column (Ni-NTA column, Bio-Rad) and size-exclusion column (Superdex 200 16/600GL column, GE Healthcare) chromatography. Protein tags were cleaved off by TEV protease, and the resulting untagged proteins were further purified by Ni affinity column. Purified proteins were verified by immunoblotting, analytic SEC, and LC-MS.
SPR studies were performed on a Biacore X100 plus instrument (GE Healthcare). Immobilization of purified DDB1ΔBPB was carried out at 25° C. using a CM5 sensor chip. The surface was pre-equilibrated in HBS-EP running buffer (10 mM HEPES, pH7.4, 150 mM NaCl, 3 mM EDTA, 0.05% P20), before it was activated with EDC/NHS. DDB1ΔBPB proteins were immobilized by amine coupling to a density of 10,000-12,000 resonance units (RUs) on flow cell FC2, whereas flow cell FC1 was used as reference. Both protein immobilized and reference surfaces were deactivated with 1M ethanolamine. All interaction experiments were performed at 25° C. Test compounds were prepared and serially diluted in HBS-EP running buffer containing final 5% DMSO (6-point two-fold serial dilution, 100 μM-3.125 μM final concentration of compounds). Compound solutions were injected individually in multi-cycle kinetic format without regeneration (flow rate 30 μl/min, association time 120 s, dissociation time 120 s). Sensorgrams from reference surfaces and blank injections were subtracted from the raw data (double-referencing) and the data was solvent-corrected prior to analysis. All data were fit to steady state affinity model using Biacore Evaluation Software to provide equivalent dissociation constants (Kd).

T2 sequence (Q16531 other isoform, or with tags, fused parts or gaps DEL396-460/DEL463-701/T703N/I704S/D705G): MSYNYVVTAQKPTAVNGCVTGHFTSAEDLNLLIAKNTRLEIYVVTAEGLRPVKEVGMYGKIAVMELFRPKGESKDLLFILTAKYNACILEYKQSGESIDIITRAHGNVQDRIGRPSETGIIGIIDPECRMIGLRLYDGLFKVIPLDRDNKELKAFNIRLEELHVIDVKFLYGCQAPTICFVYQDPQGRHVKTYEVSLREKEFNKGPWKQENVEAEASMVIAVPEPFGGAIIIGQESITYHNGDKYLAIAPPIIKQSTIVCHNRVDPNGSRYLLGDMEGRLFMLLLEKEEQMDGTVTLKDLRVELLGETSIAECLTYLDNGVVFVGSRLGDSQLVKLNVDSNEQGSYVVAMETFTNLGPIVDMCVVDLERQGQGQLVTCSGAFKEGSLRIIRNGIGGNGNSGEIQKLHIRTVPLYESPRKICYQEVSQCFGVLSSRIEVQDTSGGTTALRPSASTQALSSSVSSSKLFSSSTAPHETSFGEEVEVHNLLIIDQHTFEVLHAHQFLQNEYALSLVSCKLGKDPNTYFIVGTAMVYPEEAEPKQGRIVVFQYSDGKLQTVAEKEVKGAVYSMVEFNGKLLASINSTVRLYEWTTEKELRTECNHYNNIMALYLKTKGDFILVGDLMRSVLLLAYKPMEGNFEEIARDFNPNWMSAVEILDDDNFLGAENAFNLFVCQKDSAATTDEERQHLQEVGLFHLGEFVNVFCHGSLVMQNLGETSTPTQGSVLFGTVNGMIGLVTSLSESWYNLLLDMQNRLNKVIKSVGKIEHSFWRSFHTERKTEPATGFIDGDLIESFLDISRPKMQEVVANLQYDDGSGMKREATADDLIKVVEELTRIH
T1 sequence (P11802 2-303 limits assumed): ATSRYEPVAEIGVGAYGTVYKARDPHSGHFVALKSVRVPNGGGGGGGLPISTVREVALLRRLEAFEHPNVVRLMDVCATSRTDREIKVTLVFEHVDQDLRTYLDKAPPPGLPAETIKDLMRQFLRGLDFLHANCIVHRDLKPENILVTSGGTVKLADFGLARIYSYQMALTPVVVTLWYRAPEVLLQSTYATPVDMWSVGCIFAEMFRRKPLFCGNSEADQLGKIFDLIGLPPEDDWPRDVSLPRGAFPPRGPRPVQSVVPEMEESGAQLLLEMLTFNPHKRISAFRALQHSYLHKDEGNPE
T1 sequence (P24385 whole entry partner): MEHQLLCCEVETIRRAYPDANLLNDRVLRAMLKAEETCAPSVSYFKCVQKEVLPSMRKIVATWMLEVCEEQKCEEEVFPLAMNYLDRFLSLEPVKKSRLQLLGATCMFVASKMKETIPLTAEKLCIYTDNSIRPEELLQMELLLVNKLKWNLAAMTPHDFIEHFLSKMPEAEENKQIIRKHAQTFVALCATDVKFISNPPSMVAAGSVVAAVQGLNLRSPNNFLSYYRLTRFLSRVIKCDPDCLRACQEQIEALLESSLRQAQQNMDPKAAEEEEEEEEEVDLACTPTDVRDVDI
T1 sequence (Q16531 2-1140 limits assumed, further chain): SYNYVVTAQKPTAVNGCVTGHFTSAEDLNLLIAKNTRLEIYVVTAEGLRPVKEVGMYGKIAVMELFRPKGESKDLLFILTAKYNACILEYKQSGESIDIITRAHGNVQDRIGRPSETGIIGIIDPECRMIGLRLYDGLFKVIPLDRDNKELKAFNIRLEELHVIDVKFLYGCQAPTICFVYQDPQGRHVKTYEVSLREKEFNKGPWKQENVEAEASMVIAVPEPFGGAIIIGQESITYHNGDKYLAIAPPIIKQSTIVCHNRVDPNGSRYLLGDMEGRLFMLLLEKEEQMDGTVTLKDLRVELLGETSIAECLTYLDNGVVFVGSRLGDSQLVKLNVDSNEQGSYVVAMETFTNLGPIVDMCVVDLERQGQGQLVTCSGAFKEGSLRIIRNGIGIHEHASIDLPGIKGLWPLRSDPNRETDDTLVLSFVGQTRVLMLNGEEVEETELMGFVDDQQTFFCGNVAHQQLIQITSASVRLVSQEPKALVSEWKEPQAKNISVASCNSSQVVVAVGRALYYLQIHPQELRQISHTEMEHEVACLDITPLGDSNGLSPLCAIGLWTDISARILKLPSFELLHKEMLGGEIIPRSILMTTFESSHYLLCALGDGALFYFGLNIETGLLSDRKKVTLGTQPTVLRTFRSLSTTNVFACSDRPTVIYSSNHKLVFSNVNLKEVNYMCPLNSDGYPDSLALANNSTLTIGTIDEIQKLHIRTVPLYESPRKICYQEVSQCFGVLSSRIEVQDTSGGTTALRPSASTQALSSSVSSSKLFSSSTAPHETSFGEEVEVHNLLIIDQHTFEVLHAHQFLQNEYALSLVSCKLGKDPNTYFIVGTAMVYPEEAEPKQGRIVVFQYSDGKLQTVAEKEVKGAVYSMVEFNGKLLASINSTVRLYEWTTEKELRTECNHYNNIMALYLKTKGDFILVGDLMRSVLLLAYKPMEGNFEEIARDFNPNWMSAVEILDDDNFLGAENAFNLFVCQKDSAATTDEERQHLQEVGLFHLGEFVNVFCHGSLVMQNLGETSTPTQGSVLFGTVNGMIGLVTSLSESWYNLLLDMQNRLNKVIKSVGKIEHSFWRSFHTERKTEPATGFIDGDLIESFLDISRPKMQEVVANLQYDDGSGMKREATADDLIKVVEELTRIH

SMILES | Kd [3] [µM] | further results
Cc1cnc(NC(=O)c2ccc(NCCOCCOCCOCCOCCOCCNC(=O)CN3CCN(c4ccc(Nc5ncc6cc7n(c6n5)C5(CCCCC5)CNC7=O)nc4)CC3)cc2C)s1 [CPD-022, 2-Methyl-N-(5-methylthiazol-2-yl)-4-((2-oxo-1-(4-(6-((6′-oxo-7′,8′-dihydro-6′H-spiro[cyclohexane-1,9′-pyrazino[1′,2′:1,5]pyrrolo[2,3-d]pyrimidin]-2′-yl)amino)pyridin-3-yl)piperazin-1-yl)-6,9,12,15,18-pentaoxa-3-azaicosan-20-yl)amino)benzamide] | < 20 | inhibition at 10 µM ([1]; Calu-1, 16 h): > 80%; CyclinD1 Degradation (10 μM) [2]: A (protein percentage degradation >= 80%)
CC(=O)NCCCCCCCCC(=O)Nc1ccccc1C(=O)Nc1nc(C)c(C)s1 [B1-79, 2-(9-acetamidononanamido)-N-(4,5-dimethylthiazol-2-yl)benzamide] | 20 to 50 | 
CCc1nc(NC(=O)c2ccc(NCCOCCOCCOCCOCCOCCNC(=O)CN3CCN(c4ccc(Nc5ncc6c(C)c(C(C)=O)c(=O)n(C7CCCC7)c6n5)nc4)CC3)cc2C)sc1C [CPD-047, 4-((1-(4-(6-((6-Acetyl-8-cyclopentyl-5-methyl-7-oxo-7,8-dihydropyrido[2,3-d]pyrimidin-2-yl)amino)pyridin-3-yl)piperazin-1-yl)-2-oxo-6,9,12,15,18-pentaoxa-3-azaicosan-20-yl)amino)-N-(4-ethyl-5-methylthiazol-2-yl)-2-methylbenzamide] | < 20 | inhibition at 0.2 µM ([1]; Calu-1 cells, 16 hours): > 80%; CyclinD1 Degradation (200 nM) [2]: A (protein percentage degradation >=80%)
CCc1nc(NC(=O)c2ccccc2C)sc1C [B1-5, N-(4-ethyl-5-methylthiazol-2-yl)-2-methylbenzamide] | 20 to 50 | 
COC(=O)c1nc(NC(=O)c2ccc(NCCOCCOCCOCCOCCOCCN)cc2C)sc1C [BL1-38, methyl 2-(4-((17-amino-3,6,9,12,15-pentaoxaheptadecyl)amino)-2-methylbenzamido)-5-methylthiazole-4-carboxylate] | < 20 | 
CC(=O)Nc1ccccc1C(=O)Nc1ccc(N(C)C)nn1 [B1-71, 2-acetamido-N-(6-(dimethylamino)pyridazin-3-yl)benzamide] | 20 to 50 | 
COC(=O)c1nc(NC(=O)c2ccccc2C)sc1C [B1-4, methyl 5-methyl-2-(2-methylbenzamido)thiazole-4-carboxylate] | < 20 | 
CC(=O)Nc1ccccc1C(=O)Nc1ccc(C)c(C2CC2)n1 [B1-73, 2-acetamido-N-(6-cyclopropyl-5-methylpyridin-2-yl)benzamide] | > 100 | 
CC(=O)Nc1ccccc1C(=O)Nc1nc(C)c(C)s1 [B1-6, 2-acetamido-N-(4,5-dimethylthiazol-2-yl)benzamide] | 20 to 50 | 
Cc1ccccc1C(=O)Nc1nc(C(C)C)c(C)s1 [B1-3, N-(4-isopropyl-5-methylthiazol-2-yl)-2-methylbenzamide] | 50 to 100 | 
Cc1ccccc1C(=O)Nc1nc(C)c(C)s1 [B1-1, N-(4,5-dimethylthiazol-2-yl)-2-methylbenzamide] | > 100 | 

The next lines start with results.

Kd [3] [µM] | SMILES | further results
20 to 50 | Cc1cnc(NC(=O)c2ccc(NCCOCCOCCOCCOCCOCCNC(=O)CN3CCN(c4ccc(Nc5ncc(F)c(-c6cc(F)c7nc(C)n(C(C)C)c7c6)n5)nc4)CC3)cc2C)s1 [CPD-021, 4-((1-(4-(6-((5-Fluoro-4-(4-fluoro-1-isopropyl-2-methyl-1H-benzo[d]imidazol-6-yl)pyrimidin-2-yl)amino)pyridin-3-yl)piperazin-1-yl)-2-oxo-6,9,12,15,18-pentaoxa-3-azaicosan-20-yl)amino)-2-methyl-N-(5-methylthiazol-2-yl)benzamide] | inhibition at 10 µM ([1]; Calu-1 cells, 10 μM, 16 hours): 50 to 80%; CyclinD1 Degradation (10 μM) [2]: A (protein percentage degradation >= 80%)
20 to 50 | CNc1ccc(C(=O)Nc2nc(C)c(C)s2)c(NC(C)=O)c1 [B1-67, 2-acetamido-N-(4,5-dimethylthiazol-2-yl)-4-(methylamino)benzamide] | 
< 20 | Cc1cc(NCCOCCOCCOCCOCCOCCN)ccc1C(=O)Nc1nc(C)c(C)s1 [BL1-36, 4-((17-amino-3,6,9,12,15-pentaoxaheptadecyl)amino)-N-(4,5-dimethylthiazol-2-yl)-2-methylbenzamide] | 
< 20 | CC(=O)NCCOCCOCCNc1cccc(C(=O)Nc2nc(C)c(C)s2)c1C [B1-80, 3-((2-(2-(2-acetamidoethoxy)ethoxy)ethyl)amino)-N-(4,5-dimethylthiazol-2-yl)-2-methylbenzamide] | 
> 100 | Cc1ccccc1C(=O)Nc1nc(Br)c(C)s1 [B1-2, N-(4-bromo-5-methylthiazol-2-yl)-2-methylbenzamide] | 
< 20 | COC(=O)c1nc(NC(=O)c2ccc(NCCOCCOCCOCCOCCOCCNC(=O)CN3CCN(c4ccc(Nc5ncc6c(C)c(C(C)=O)c(=O)n(C7CCCC7)c6n5)nc4)CC3)cc2C)sc1C [CPD-033, Methyl 2-(4-((1-(4-(6-((6-acetyl-8-cyclopentyl-5-methyl-7-oxo-7,8-dihydropyrido[2,3-d]pyrimidin-2-yl)amino)pyridin-3-yl)piperazin-1-yl)-2-oxo-6,9,12,15,18-pentaoxa-3-azaicosan-20-yl)amino)-2-methylbenzamido)-5-methylthiazole-4-carboxylate] | inhibition at 0.2 µM ([1]; Calu-1 cells, 16 hours): > 80%; CyclinD1 Degradation (200 nM) [2]: A (protein percentage degradation >=80%)
< 20 | Cc1cnc(NC(=O)c2ccc(NCCOCCOCCOCCOCCOCCN)cc2C)s1 [BL1-24, 4-((17-amino-3,6,9,12,15-pentaoxaheptadecyl)amino)-2-methyl-N-(5-methylthiazol-2-yl)benzamide] | 
> 100 | CC(=O)Nc1ccccc1C(=O)Nc1ccc(C)cn1 [B1-31, 2-acetamido-N-(5-methylpyridin-2-yl)benzamide] | 
< 20 | CC(=O)c1c(C)c2cnc(Nc3ccc(N4CCN(CC(=O)NCCOCCOCCOCCC(=O)Nc5ccccc5C(=O)Nc5nc(C)c(C)s5)CC4)cn3)nc2n(C2CCCC2)c1=O [CPD-114, 2-(1-(4-(6-((6-Acetyl-8-cyclopentyl-5-methyl-7-oxo-7,8-dihydropyrido[2,3-d]pyrimidin-2-yl)amino)pyridin-3-yl)piperazin-1-yl)-2-oxo-6,9,12-trioxa-3-azapentadecan-15-amido)-N-(4,5-dimethylthiazol-2-yl)benzamide] | inhibition at 0.2 µM ([1]; Calu-1 cells, 16 hours): > 80%; CyclinD1 Degradation (200 nM) [2]: A (protein percentage degradation >=80%)
> 100 | Cc1ccccc1C(=O)Nc1nc(C2CC2)c(C)s1 [B1-7, N-(4-cyclopropyl-5-methylthiazol-2-yl)-2-methylbenzamide] | 
20 to 50 | COc1ccc(NC(=O)c2ccccc2NC(C)=O)nn1 [B1-53, 2-acetamido-N-(6-methoxypyridazin-3-yl)benzamide] | 
< 20 | CNc1ccc(C(=O)Nc2ccc(C)cn2)c(NC(C)=O)c1 [B1-88, 2-acetamido-4-(methylamino)-N-(5-methylpyridin-2-yl)benzamide] | 
20 to 50 | COc1ccc(NC(=O)c2ccccc2NC(C)=O)nc1 [B1-83, 2-acetamido-N-(5-methoxypyridin-2-yl)benzamide] | 
> 100 | Cc1ccccc1C(=O)Nc1cc(C)n(C)n1 [B1-8, N-(1,5-dimethyl-1H-pyrazol-3-yl)-2-methylbenzamide] | 
